Patent publication US8507520B2, “Polysubstituted 2-aryl-6-phenylimidazo[1,2-A]pyridine derivatives, and preparation and therapeutic use thereof” (Sanofi, priority 2008, dated 2013)

Tested on: not given
Assay: not given
Settings: not given

Row | melting point | SMILES
1 | 174 to 177 °C | Cc1cc(-c2cccc(CO)c2)cn2cc(-c3ccc(Cl)cc3)nc12 [Compound 1, {3-[2-(4-Chlorophenyl)-8-methylimidazo[1,2-α]pyridin-6-yl]phenyl}methanol]

Target: T1, mouse Nurr1 receptor (Mus musculus, UniProt Q06219)
T1 construct: a cell line (N2A) endogenously expressing the mouse Nurr1 receptor; host or cells: Neuro-2A (N2A) mouse neuroblastoma cells stably transfected with 8NBRE-luciferase
T1 sequence (Q06219 whole entry): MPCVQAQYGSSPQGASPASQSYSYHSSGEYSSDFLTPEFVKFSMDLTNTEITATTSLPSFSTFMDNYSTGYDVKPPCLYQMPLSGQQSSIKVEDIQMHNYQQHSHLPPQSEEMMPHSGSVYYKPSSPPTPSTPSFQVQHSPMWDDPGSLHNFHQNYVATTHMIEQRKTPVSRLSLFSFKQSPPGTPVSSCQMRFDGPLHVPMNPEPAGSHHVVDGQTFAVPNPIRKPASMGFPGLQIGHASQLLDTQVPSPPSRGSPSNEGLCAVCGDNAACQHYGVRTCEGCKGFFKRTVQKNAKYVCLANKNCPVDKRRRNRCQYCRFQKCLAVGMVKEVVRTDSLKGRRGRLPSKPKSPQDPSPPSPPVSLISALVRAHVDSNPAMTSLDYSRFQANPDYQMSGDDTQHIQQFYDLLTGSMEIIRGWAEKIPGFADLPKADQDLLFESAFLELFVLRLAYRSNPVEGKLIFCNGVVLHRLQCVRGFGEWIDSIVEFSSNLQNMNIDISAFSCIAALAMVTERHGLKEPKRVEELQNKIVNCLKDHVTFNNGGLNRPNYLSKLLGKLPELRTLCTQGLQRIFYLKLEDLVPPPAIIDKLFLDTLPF
Assay: In vitro activity on N2A cells (NBRE-luciferase reporter)
Type: cell-based
Settings: N2A-8NBRE cells, products incubated 24 hours
Protocol: Evaluation of the In Vitro Activity on N2A Cells
• The activity of the compounds according to the invention was evaluated on a cell line (N2A) endogenously expressing the mouse Nurr1 receptor and stabily transfected with the NOT binding response element (NBRE) coupled to the luciferase reporter gene. The EC50 values are between 0.01 and 10 μM. The tests were carried out according to the procedure described below. • The Neuro-2A cell line comes from a standard commercial source (ATCC). The Neuro-2A clone was obtained from a spontaneous tumour originating from a mouse A albino strain by R. J. Klebe et al. This Neuro-2A line is subsequently stabily transfected with 8NBRE-luciferase. The N2A-8NBRE cells are cultured to confluence in 75 cm^2 culture flasks containing DMEM supplemented with 10% of foetal calf serum, 4.5 g/l of glucose and 0.4 mg/ml of geneticin. After one week of culture, the cells are recovered with 0.25% trypsin for 30 seconds and then resuspended in DMEM without phenol red, containing 4.5 g/l of glucose, 10% of Hyclone defatted serum, and deposited in white, transparent-bottom, 96-well plates. The cells are deposited at a rate of 60 000 per well in 75 μl for 24 hours before the addition of the products. The products were applied in 25 μl and incubated for a further 24 hours. On the day of measurement, an equivalent volume (100 μl) of Steadylite is added to each well, followed by a waiting period of 30 minutes in order to obtain complete lysis of the cells and maximum production of the signal. The plates are then measured in a microplate luminescence counter after having been sealed with an adhesive film. The products are prepared in the form of a stock solution at 10^−2 M, and then diluted in 100% of DMSO. Each product concentration is diluted beforehand in culture medium before incubation with the cells thus containing a final concentration of 0.625% of DMSO. […] It therefore appears that the compounds according to the invention have a NOT-modulating effect.

Row | SMILES | EC50
2 | COc1ccc(-c2nc3ccc(-c4cccc(C(C)(C)O)c4)cn3c2C)cc1 [Compound 15, 2-{3-[2-(4-methoxyphenyl)-3-methylimidazo[1,2-α]pyridin-6-yl]phenyl}propan-2-ol] | 161 nM
3 | Cc1cc(-c2ccc(CO)cc2)cn2cc(-c3ccc4ccccc4c3)nc12 [Compound 10, [4-(8-methyl-2-naphthyl-2-ylimidazo[1,2-α]pyridin-6-yl)phenyl]methanol] | 68 nM
4 | Cc1cc(-c2cccc(CO)c2)cn2cc(-c3ccc(Cl)cc3)nc12 [Compound 1, {3-[2-(4-Chlorophenyl)-8-methylimidazo[1,2-α]pyridin-6-yl]phenyl}methanol] | 5 nM

The next compounds have a lower EC50 than those just listed; values first:

Row | EC50 | SMILES
5 | 0.5 nM | Cc1c(-c2ccccc2)nc2ccc(-c3cccc(CO)c3)cn12 [Compound 3, [3-(3-Methyl-2-phenylimidazo[1,2-α]pyridin-6-yl)phenyl]methanol]
6 | 1.7 nM | Cc1c(-c2cccc(Cl)c2)nc2ccc(-c3ccc(F)c(CO)c3F)cn12 [Compound 19, {3-[2-(3-chlorophenyl)-3-methylimidazo[1,2-α]pyridin-6-yl]-2,6-difluorophenyl}methanol]
